Publication PMC11903766, “A structure-based framework for selective inhibitor design and optimization” (Communications Biology, 2025)
Like-named read-outs stand apart in the source and are kept apart here.

Experiments:
PARP2 [1] = molecular target: T1, PARP2 (Homo sapiens, UniProt Q9UGN5); test: biochemical; design: PARP2 ELISA on histone-coated plates with biotin-NAD+, streptavidin-HRP chemiluminescence
Description: (§1) S54 PARP2 inhibitory activity assay. The histone coated 384-well plates were prepared by adding 25 µL histone solution to each well and incubating overnight at 4°C. Prepared PBST buffer, blocking buffer, and assay buffer. Washed the histone coated 384-well plate 3 times using PBST buffer solution. It was blocked with 50 µL blocking buffer at room temperature for 1 h. The plate was washed 3 times using PBST buffer. 2000x compounds were prepared in the source plate, and 50nl compound were transferred from the source plate to the 96-well intermediate plate with 19.95ul assay buffer, shaken, and centrifuged at 1000rpm for 1 min. 5 µL DMSO/compound was then transferred to each well. The PARP2 mixture was incubated for 10 min at 25°C, followed by the addition of 10 µL PARP2 (except min control), incubated with the compound for 10 min at RT, and 10 µL assay buffer was added to the minimal control of assay plate. Added 10 µL of 2.5x Biotin-NAD+ to each well and incubated for 90 min at 25°C. The plate was washed 3 times with PBST buffer and then assayed. Added 25 µL of Stre-HRP. Incubated for 1 h at RT and washed the plate 3 times with PBST buffer. Read chemiluminescence on Envision immediately after adding 25 µL of Femto-ECL Substrate A and Femto-ECL Substrate B (1:1) mix. The IC50 values were calculated by analyzing the concentration-response curves.

PARP1 [2] = molecular target: T2, PARP1 (Homo sapiens, UniProt P09874); test: biochemical; design: PARP1 ELISA on histone-coated plates with NAD+, anti-PAR antibody, HRP chemiluminescence
T2 sequence (P09874 2-1014): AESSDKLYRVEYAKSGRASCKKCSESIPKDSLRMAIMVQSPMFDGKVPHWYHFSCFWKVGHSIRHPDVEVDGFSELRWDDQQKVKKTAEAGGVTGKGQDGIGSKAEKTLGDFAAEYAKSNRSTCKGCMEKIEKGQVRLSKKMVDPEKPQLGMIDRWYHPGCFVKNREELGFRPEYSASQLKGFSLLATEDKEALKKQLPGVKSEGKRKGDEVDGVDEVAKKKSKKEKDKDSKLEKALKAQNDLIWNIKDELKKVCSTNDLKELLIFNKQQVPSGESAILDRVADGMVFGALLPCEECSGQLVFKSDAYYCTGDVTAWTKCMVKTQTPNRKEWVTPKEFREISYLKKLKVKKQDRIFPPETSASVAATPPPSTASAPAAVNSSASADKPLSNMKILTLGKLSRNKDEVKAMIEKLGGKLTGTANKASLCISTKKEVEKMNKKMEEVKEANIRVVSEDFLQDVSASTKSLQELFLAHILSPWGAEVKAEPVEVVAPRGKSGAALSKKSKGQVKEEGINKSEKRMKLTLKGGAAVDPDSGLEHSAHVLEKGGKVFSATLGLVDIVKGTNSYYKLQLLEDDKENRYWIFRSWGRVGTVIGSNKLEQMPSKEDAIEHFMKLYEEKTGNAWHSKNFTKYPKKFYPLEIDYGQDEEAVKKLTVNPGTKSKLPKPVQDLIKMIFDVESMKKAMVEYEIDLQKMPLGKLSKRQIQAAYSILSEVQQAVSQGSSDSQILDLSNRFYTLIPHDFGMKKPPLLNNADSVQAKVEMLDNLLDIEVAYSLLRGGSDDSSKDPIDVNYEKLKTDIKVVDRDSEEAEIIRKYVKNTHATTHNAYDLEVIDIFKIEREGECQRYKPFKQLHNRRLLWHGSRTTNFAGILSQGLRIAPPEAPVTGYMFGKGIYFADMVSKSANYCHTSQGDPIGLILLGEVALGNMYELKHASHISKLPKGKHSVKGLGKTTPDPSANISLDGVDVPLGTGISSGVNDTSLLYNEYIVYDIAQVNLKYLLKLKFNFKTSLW
Description: (§2) S53 Biological Assay Methods PARP1 inhibitory activity assay. The histone coated 384-well plates were prepared by adding 25 µL histone solution to each well and incubating overnight at 4°C. Prepared PBST buffer, blocking buffer, and assay buffer. Washed the histone coated 384-well plate 3 times using PBST buffer solution. It was blocked with 50 µL blocking buffer at room temperature for 1 h. The plate was washed 3 times using PBST buffer. 2000x compounds were prepared in the source plate, and 50nl compound were transferred from the source plate to the 96-well intermediate plate with 19.95ul assay buffer, shaken, and centrifuged at 1000rpm for 1 min. 5 µL DMSO/compound was then transferred to each well. The PARP1 and DNA mixture was incubated for 10 min at 25°C, followed by the addition of 10 µL PARP1 and DNA (except min control), incubated with the compound for 10 min at RT, and 10 μL DNA was added to the minimal control of assay plate. Added 10 µL of 2.5x NAD+ to each well and incubated for 60 min at 25°C. The plate was washed 3 times with PBST buffer and then assayed. Added 20 µL of anti-Poly/Mono-ADP Ribose Rabbit mAb. […] Read chemiluminescence on Envision immediately after adding 25 µL of Femto-ECL Substrate A and Femto-ECL Substrate B (1:1) mix. The IC50 values were calculated by analyzing the concentration-response curves. […]

PARP2 [3] = molecular target: T1, PARP2; test: biochemical; design: PARP2 ELISA on histone-coated plates, biotin-NAD+, streptavidin-HRP, chemiluminescence
Description: as §1

PARP1 [4] = molecular target: T2, PARP1; test: ELISA enzyme inhibition assay; assay type: biochemical; conditions: read-out: PARP1 Enzyme / IC50 (nM)^b
PARP1 [5] = molecular target: T2, PARP1; test: biochemical; design: PARP1 ELISA on histone-coated plates, NAD+, anti-PAR antibody with HRP, chemiluminescence
Description: S53 Biological Assay Methods PARP1 inhibitory activity assay. The histone coated 384-well plates were prepared by adding 25 µL histone solution to each well and incubating overnight at 4°C. Prepared PBST buffer, blocking buffer, and assay buffer. Washed the histone coated 384-well plate 3 times using PBST buffer solution. It was blocked with 50 µL blocking buffer at room temperature for 1 h. The plate was washed 3 times using PBST buffer. 2000x compounds were prepared in the source plate, and 50nl compound were transferred from the source plate to the 96-well intermediate plate with 19.95ul assay buffer, shaken, and centrifuged at 1000rpm for 1 min. 5 µL DMSO/compound was then transferred to each well. The PARP1 and DNA mixture was incubated for 10 min at 25°C, followed by the addition of 10 µL PARP1 and DNA (except min control), incubated with the compound for 10 min at RT, and 10 μL DNA was added to the minimal control of assay plate. Added 10 µL of 2.5x NAD+ to each well and incubated for 60 min at 25°C. The plate was washed 3 times with PBST buffer and then assayed. Added 20 µL of anti-Poly/Mono-ADP Ribose Rabbit mAb. Incubated for 1.5 h at RT and washed the plate 3 times with PBST buffer. Then added, 20 µL of diluted (1:2000 in Blocking buffer) anti-rabbit IgG, HRP-linked Antibody. Incubated for 1 h at RT and washed the plate 3 times using PBST buffer. Read chemiluminescence on Envision immediately after adding 25 µL of Femto-ECL Substrate A and Femto-ECL Substrate B (1:1) mix. The IC50 values were calculated by analyzing the concentration-response curves. Fit the data to obtain inhibition values using equation (1) Equation (1): inh %=( Max-Signal)/ (Max-Min)*100 Fit the data to obtain IC50 values using equation (2) Equation (2): Y=Bottom + (Top-Bottom)/(1+(IC50/X)[…]) Y is %inhibition and X is compound concentration.

PARP2 [6] = molecular target: T1, PARP2; test: ELISA enzyme inhibition assay; assay type: biochemical; conditions: read-out: PARP2 Enzyme / IC50 (nM)^b
PARP1 [7] = molecular target: T2, PARP1; design: PARP1 ELISA on histone-coated plates, NAD+, anti-PAR antibody with HRP, chemiluminescence; conditions: inhibitor
Description: as §2

PARP2 [8] = molecular target: T1, PARP2; design: PARP2 ELISA on histone-coated plates, biotin-NAD+, streptavidin-HRP, chemiluminescence; conditions: inhibitor
Description: as §1

T1 sequence (Q9UGN5 whole entry): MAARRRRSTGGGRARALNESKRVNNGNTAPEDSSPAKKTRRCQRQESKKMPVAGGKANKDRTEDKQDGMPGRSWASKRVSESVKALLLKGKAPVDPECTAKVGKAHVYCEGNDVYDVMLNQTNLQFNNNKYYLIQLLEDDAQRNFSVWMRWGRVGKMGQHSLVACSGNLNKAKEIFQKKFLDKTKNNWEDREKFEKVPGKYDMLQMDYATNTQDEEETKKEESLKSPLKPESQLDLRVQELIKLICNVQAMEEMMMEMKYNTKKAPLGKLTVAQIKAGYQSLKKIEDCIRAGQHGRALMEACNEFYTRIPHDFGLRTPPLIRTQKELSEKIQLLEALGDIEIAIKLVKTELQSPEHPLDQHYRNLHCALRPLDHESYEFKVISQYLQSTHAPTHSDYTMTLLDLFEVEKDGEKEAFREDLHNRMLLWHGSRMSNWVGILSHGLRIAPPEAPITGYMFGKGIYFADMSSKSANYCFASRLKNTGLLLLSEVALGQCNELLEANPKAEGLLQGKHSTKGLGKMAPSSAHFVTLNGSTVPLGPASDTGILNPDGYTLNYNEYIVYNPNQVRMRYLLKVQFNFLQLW

Row | SMILES | IC50 (PARP2 [1]) [nM] | IC50 (PARP1 [2]) [nM] | inhibition at 0.01 µM (PARP2 [3]) [%] | IC50 (PARP1 [4]) [nM] | inhibition at 0.01 µM (PARP1 [5]) [%] | inhibition at 10 µM (PARP1 [5]) [%] | IC50 (PARP2 [6]) [nM] | IC50 (PARP1 [7]) [nM] | IC50 (PARP2 [8]) [nM]
1 | CNC(=O)c1ccc(N2CCN(Cc3ccnc(-c4c[nH]c(=O)c(C)c4)n3)CC2)cn1 [R1] | 255 | 3370 | – | – | – | – | – | – | –
2 | CCNC(=O)Nc1cc(CN2CCN(c3ccc(C(=O)NC)nc3)CC2)c2ccccc2n1 [Y6] | – | – | 87.6 | 6 | 70.5 | 99.1 | 2.4 | – | –
3 | CNC(=O)c1ccc(N2CCN(CC#Cc3cccc4cn[nH]c34)CC2)cn1 [Y2] | – | – | 2.3 | – | -0.1 | 47.4 | – | 9800 | > 10000
4 | O=C(c1ccc(C(F)(F)F)c(=O)[nH]1)N1CCN(c2ccc3cc[nH]c3c2)CC1 [Z5] | – | – | -0.8 | – | 7.3 | 12.7 | – | > 10000 | > 10000
5 | CNC(=O)c1ccc(N2CCN(Cc3ccc4c(c3)[nH]c3ncccc34)CC2)cn1 [Y5] | – | – | 1.4 | 12.7 | 46 | 98.8 | – | – | > 10000
6 | CCn1c(=O)[nH]c2sc(CN3CCN(c4ccc(C(=O)NC)nc4)CC3)c(C)c2c1=O [Y4] | – | – | -1.6 | 86.5 | 20.7 | 99 | 741 | – | –
